Measurements: patent publication US20260049055A1, “SOLID FORMS OF […] […] USES THEREOF” (Sensorium Therapeutics, Inc., priority 2022, published 2026)

Assays:
[1] = molecular target: sodium-dependent serotonin transporter (SERT) (Homo sapiens, UniProt P31645); conditions: reported for naturally occurring material from Sceletium tortuosum; cited from earlier work
Chain of sodium-dependent serotonin transporter (SERT) (P31645 whole entry, species assumed): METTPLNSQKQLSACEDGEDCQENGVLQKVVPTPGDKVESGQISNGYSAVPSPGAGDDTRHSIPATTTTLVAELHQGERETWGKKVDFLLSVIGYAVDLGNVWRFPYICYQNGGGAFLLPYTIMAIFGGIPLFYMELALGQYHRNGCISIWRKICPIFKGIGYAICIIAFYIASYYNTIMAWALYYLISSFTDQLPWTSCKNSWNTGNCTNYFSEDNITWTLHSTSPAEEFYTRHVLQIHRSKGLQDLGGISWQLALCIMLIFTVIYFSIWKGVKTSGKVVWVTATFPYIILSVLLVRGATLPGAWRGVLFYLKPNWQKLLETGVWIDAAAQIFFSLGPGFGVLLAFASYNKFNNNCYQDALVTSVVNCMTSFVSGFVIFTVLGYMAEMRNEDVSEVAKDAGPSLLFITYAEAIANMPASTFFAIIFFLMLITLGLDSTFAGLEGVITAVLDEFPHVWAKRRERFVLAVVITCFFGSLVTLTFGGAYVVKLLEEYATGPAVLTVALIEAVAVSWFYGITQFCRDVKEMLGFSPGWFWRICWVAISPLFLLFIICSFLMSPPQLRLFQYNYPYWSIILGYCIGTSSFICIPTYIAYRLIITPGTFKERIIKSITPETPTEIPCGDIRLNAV

[2] = Solubility of Freeform Form A in solvents; assay type: physicochemical
Source text: Freeform Form A was a gum material. The material had the solubility shown below:

COc1ccc([C@@]23CCC(=O)C[C@@H]2N(C)CC3)cc1OC [Compound 1, (3aS,7aS)-3a-(3,4-dimethoxyphenyl)-1-methyl-2,3,4,5,7,7a-hexahydroindol-6-one]
serotonin (5-HT) uptake inhibition, in words [1]: serotonin (5-HT) uptake inhibitory activity

COc1ccc([C@@]23CCC(=O)C[C@@H]2N(C)CC3)cc1OC [Freeform Form A, (3aS,7aS)-3a-(3,4-dimethoxyphenyl)-1-methyl-2,3,4,5,7,7a-hexahydroindol-6-one]
Solubility (mg/mL) ([2]; solvent 1,4-Dioxane): S > 40.0 mg/mL | Solubility (mg/mL) ([2]; solvent 2-MeTHF): S > 40.0 mg/mL | Solubility (mg/mL) ([2]; solvent ACN): S > 44.0 mg/mL | Solubility (mg/mL) ([2]; solvent Acetone): S > 40.0 mg/mL | Solubility (mg/mL) ([2]; solvent CPME): S > 40.0 mg/mL | Solubility (mg/mL) ([2]; solvent DCM): S > 42.0 mg/mL | Solubility (mg/mL) ([2]; solvent EtOH): S > 42.0 mg/mL | Solubility (mg/mL) ([2]; solvent H2O): S > 42.0 mg/mL | Solubility (mg/mL) ([2]; solvent IPA): S > 38.0 mg/mL | Solubility (mg/mL) ([2]; solvent IPAc): S > 36.0 mg/mL | Solubility (mg/mL) ([2]; solvent MIBK): S > 38.0 mg/mL | Solubility (mg/mL) ([2]; solvent MTBE): S > 40.0 mg/mL | Solubility (mg/mL) ([2]; solvent MeOH): S > 36.0 mg/mL | Solubility (mg/mL) ([2]; solvent THF): S > 44.0 mg/mL
